Reference: US9115137B2, “2,3,4,5-tetrahydro-1H-pyrido[4,3-B]indole compounds and methods of use thereof” (priority 2008, dated 2015)

Key:
[1] = target: T1, human recombinant serotonin (5-Hydroxytryptamine) 5-HT7 receptor (Homo sapiens, UniProt P34969); assay: Serotonin 5-HT7 radioligand binding ([3H]LSD); details: compound at 1 μM; CHO cells; read-out: Serotonin (1 μM) 5-HT7, percent inhibition of specific binding
T1 construct: expressed in transfected cells; host or cells: CHO cells
Protocol: To evaluate in radioligand binding assays the activity of compounds of the invention, human recombinant serotonin (5-Hydroxytryptamine) 5-HT7 receptor expressed in Chinese hamster ovary (CHO) cells (Roth, B. L. et al., J. Pharmacol. Exp. Ther. 268:1403, 1994; Shen, Y. et al., J. Biol. Chem. 268:18200, 1993) in a modified Tris-HCl buffer (50 mM Tris-HCl, pH 7.4, 10 mM MgCl2, 0.5 mM EDTA) was used. Compounds of invention were incubated with 5.5 nM [^3H] Lysergic acid diethylamide (LSD) for 2 hours at 25° C. Non-specific binding was estimated in the presence of 10 μM Serotonin (5-HT). Receptor proteins were filtered and washed, the filters were then counted to determine [^3H]LSD specifically bound. Compounds were screened at 1 μM or lower, using 1% DMSO as vehicle. Biochemical assay results are presented as the percent inhibition of specific binding in Table 7.

[2] = target: T2, rat adrenergic α1B receptor (Rattus norvegicus, UniProt P15823); assay: Adrenergic α1B radioligand binding ([3H]Prozosin); details: compound at 1 μM; Wistar Rat liver; read-out: Adrenergic (1 μM) α1B, percent inhibition of specific binding
T2 construct: obtained from Wistar Rat liver; from tissue; host or cells: Wistar rat liver
T2 sequence (P15823 1-515): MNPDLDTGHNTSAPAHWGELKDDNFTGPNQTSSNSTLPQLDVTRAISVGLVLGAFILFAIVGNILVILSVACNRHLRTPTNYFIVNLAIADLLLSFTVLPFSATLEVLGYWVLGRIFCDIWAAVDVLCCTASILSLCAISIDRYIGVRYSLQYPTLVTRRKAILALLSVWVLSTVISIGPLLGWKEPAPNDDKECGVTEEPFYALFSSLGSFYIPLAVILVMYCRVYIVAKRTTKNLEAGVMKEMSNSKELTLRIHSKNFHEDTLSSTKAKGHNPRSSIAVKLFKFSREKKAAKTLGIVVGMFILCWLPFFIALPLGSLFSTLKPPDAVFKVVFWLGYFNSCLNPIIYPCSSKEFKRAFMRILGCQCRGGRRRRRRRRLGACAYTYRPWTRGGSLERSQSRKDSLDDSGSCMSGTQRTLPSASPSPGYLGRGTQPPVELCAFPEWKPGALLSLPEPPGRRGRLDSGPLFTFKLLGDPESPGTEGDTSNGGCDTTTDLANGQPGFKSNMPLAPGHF
Protocol: To evaluate in radioligand binding assays the activity of compounds of the invention, rat adrenergic α1B receptor obtained from Wistar Rat liver (Garcia-S'ainz, J. A. et al., Biochem. Biophys. Res. Commun. 186:760, 1992; Michel A. D. et al. Br. J. Pharmacol. 98:883, 1989) in a modified Tris-HCl buffer (50 mM Tris-HCl buffer, pH 7.4, 0.5 mM EDTA) was used. Compounds of the invention were incubated with 0.25 nM [^3H]Prozosin for 60 minutes at 25° C. Non-specific binding was estimated in the presence of 10 μM phentolamine. Receptor proteins were filtered and washed, the filters were then counted to determine [^3H]Prozosin specifically bound. Compounds were screened at 1 μM or lower, using 1% DMSO as vehicle. Compounds of the invention were tested in this biochemical assay and percent inhibition of specific binding was determined. Biochemical assay results are presented as the percent inhibition of specific binding in Table 6.

[3] = target: T3, human recombinant serotonin (5-Hydroxytryptamine) 5-HT2A receptor (Homo sapiens, UniProt P28223); assay: Serotonin 5-HT2A radioligand binding ([3H]Ketanserin); details: compound at 1 μM; CHO-K1 cells; read-out: Serotonin (1 μM) 5-HT2A, percent inhibition of specific binding
T3 construct: expressed in transfected cells; host or cells: CHO-K1 cells
Protocol: To evaluate in radioligand binding assays the activity of compounds of the invention, human recombinant serotonin (5-Hydroxytryptamine) 5-HT2A receptor expressed in Chinese hamster ovary (CHO-K1) cells (Bonhaus, D. W. et al. Br. J. Pharmacol. 115:622, 1995; Saucier, C. and Albert, P. R., J. Neurochem. 68:1998, 1997) in a 50 mM Tris-HCl buffer, pH 7.4, was used. Compounds of the invention were incubated with 0.5 nM [^3H]Ketanserin for 60 minutes at 25° C. Non-specific binding was estimated in the presence of 1 μM Mianserin. Receptor proteins were filtered and washed, the filters were then counted to determine [^3H] Ketanserin specifically bound. Compounds were screened at 1 μM or lower, using 1% DMSO as vehicle. Biochemical assay results are presented as the percent inhibition of specific binding in Table 7.

[4] = tested on: rat central imidazoline I2 receptor; assay: Central imidazoline I2 radioligand binding ([3H]Idazoxan); details: compound at 1 μM; Wistar Rat cerebral cortex
Protocol: To evaluate in radioligand binding assays the activity of compounds of the invention, rat central imidazoline I2 receptor obtained from Wistar Rat cerebral cortex (Brown, C. M. et al., Br. J. Pharmacol. 99:803, 1990) in a modified Tris-HCl buffer (50 mM Tris-HCl buffer, pH 7.4, 0.5 mM EDTA) was used. Compounds of the invention were incubated with 2 nM [^3H]Idazoxan for 30 minutes at 25° C. Non-specific binding was estimated in the presence of 1 μM Idazoxan. Receptor proteins were filtered and washed, the filters were then counted to determine [^3H]Idazoxan specifically bound. Compounds were screened at 1 μM or lower, using 1% DMSO as vehicle. Compounds of the invention were tested in this biochemical assay and percent inhibition of specific binding was determined. Biochemical assay results are presented as the percent inhibition of specific binding in Table 5.

[5] = target: T4, human recombinant serotonin (5-Hydroxytryptamine) 5-HT2B receptor (Homo sapiens, UniProt P41595); assay: Serotonin 5-HT2B radioligand binding ([3H]LSD); details: compound at 1 μM; CHO-K1 cells; read-out: Serotonin (1 μM) 5-HT2B, percent inhibition of specific binding
T4 construct: expressed in transfected cells; host or cells: CHO-K1 cells
Protocol: To evaluate in radioligand binding assays the activity of compounds of the invention, human recombinant serotonin (5-Hydroxytryptamine) 5-HT2B receptor expressed in Chinese hamster ovary (CHO-K1) cells (Bonhaus, D. W. et al., Br. J. Pharmacol. 115:622, 1995) in a modified Tris-HCl buffer (50 mM Tris-HCl, pH 7.4, 4 mM CaCl2, 0.1% Ascorbic Acid) was used. Compounds of invention were incubated with 1.2 nM [^3H]Lysergic acid diethylamide (LSD) for 60 minutes at 37° C. Non-specific binding was estimated in the presence of 10 μM Serotonin (5-HT). Receptor proteins were filtered and washed, the filters were then counted to determine [^3H]LSD specifically bound. Compounds were screened at 1 μM or lower, using 1% DMSO as vehicle. Compounds of the invention were tested in this biochemical assay and percent inhibition of specific binding was determined. Biochemical assay results are presented as the percent inhibition of specific binding in Table 7.

T1 sequence (P34969 whole entry): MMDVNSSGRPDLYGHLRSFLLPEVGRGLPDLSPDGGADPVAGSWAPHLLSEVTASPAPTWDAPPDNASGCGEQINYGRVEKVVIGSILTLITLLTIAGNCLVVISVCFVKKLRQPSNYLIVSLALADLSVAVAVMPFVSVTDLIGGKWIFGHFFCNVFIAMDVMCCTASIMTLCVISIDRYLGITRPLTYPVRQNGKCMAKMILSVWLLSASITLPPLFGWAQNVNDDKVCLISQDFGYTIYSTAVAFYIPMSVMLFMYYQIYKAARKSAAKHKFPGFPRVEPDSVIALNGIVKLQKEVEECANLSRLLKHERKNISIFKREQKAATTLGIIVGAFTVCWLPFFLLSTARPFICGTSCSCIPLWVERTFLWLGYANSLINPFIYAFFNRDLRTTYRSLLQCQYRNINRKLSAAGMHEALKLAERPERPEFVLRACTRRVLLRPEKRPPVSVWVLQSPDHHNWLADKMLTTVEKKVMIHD
T4 sequence (P41595 whole entry): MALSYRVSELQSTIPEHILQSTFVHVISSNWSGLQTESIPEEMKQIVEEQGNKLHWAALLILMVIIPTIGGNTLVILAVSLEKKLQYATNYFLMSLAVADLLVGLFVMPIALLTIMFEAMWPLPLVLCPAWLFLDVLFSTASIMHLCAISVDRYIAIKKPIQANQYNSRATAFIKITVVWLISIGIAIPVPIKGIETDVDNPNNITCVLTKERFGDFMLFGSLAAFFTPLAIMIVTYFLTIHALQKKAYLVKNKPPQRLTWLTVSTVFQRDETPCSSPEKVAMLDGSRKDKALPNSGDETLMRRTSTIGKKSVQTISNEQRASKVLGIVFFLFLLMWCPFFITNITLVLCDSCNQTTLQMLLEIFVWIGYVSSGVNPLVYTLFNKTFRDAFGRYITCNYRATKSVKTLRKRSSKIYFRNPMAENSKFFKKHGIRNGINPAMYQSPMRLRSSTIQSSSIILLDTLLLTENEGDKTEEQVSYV
T3 sequence (P28223 whole entry): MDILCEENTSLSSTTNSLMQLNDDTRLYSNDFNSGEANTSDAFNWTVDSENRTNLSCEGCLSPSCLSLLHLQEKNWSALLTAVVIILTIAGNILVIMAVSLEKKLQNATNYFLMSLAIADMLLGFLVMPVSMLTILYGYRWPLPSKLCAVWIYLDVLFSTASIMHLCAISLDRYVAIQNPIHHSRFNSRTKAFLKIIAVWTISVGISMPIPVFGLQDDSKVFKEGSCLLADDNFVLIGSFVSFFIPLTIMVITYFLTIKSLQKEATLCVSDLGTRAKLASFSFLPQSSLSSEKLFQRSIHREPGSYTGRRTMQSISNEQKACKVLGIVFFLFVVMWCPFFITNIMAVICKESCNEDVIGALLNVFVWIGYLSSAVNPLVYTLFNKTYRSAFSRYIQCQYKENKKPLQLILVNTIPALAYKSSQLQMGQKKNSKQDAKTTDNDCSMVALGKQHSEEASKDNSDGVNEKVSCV

CCOC(=O)CCn1c2c(c3cc(C)ccc31)CN(C)CC2 [CD1, ethyl 3-(1,2,3,4-tetrahydro-2,8-dimethylpyrido[4,3-b]indol-5-yl)propanoate]
inhibition at 1 µM [1]: 85% | inhibition at 1 µM [2]: 42% | inhibition at 1 µM [3]: 89% | Imidazoline I2 Central (1 μM), percent inhibition of specific binding [4]: 55% | inhibition at 1 µM [5]: 54%

Cc1ccc2c(c1)c1c(n2CC#N)CCN(C)C1 [CD61, 2-(1,2,3,4-tetrahydro-2,8-dimethylpyrido[4,3-b]indol-5-yl)acetonitrile]
inhibition at 1 µM [1]: 94% | inhibition at 1 µM [2]: 94% | inhibition at 1 µM [3]: 77% | Imidazoline I2 Central (1 μM), percent inhibition of specific binding [4]: 60% | inhibition at 1 µM [5]: 43%

C#CCn1c2c(c3cc(C)ccc31)CN(C)CC2 [CD73, 2,8-dimethyl-5-(prop-2-ynyl)-2,3,4,5-tetrahydro-1H-pyrido[4,3-b]indole]
inhibition at 1 µM [1]: 91% | inhibition at 1 µM [2]: 84% | inhibition at 1 µM [3]: 87% | Imidazoline I2 Central (1 μM), percent inhibition of specific binding [4]: 73% | inhibition at 1 µM [5]: 94%

CNC(=O)CCn1c2c(c3cc(C)ccc31)CN(C)CC2 [Compound 1, 3-(1,2,3,4-tetrahydro-2,8-dimethylpyrido[4,3-b]indol-5-yl)-N-methylpropanamide]
inhibition at 1 µM [1]: 33% | inhibition at 1 µM [2]: 13% | inhibition at 1 µM [3]: 30% | Imidazoline I2 Central (1 μM), percent inhibition of specific binding [4]: 18% | inhibition at 1 µM [5]: 23%

CCNC(=O)CCn1c2c(c3cc(C)ccc31)CN(C)CC2 [Compound 2, N-ethyl-3-(1,2,3,4-tetrahydro-2,8-dimethylpyrido[4,3-b]indol-5-yl)propanamide]
inhibition at 1 µM [1]: 47% | inhibition at 1 µM [2]: 22% | inhibition at 1 µM [3]: 22% | Imidazoline I2 Central (1 μM), percent inhibition of specific binding [4]: 8% | inhibition at 1 µM [5]: 20%

Cc1ccc2c(c1)c1c(n2CCC(=O)NC2CCCCC2)CCN(C)C1 [Compound 3, N-cyclohexyl-3-(1,2,3,4-tetrahydro-2,8-dimethylpyrido[4,3-b]indol-5-yl)propanamide]
inhibition at 1 µM [1]: 36% | inhibition at 1 µM [2]: 14% | inhibition at 1 µM [3]: 63% | Imidazoline I2 Central (1 μM), percent inhibition of specific binding [4]: 27% | inhibition at 1 µM [5]: 21%

Cc1ccc2c(c1)c1c(n2CCC(=O)NC2CCCC2)CCN(C)C1 [Compound 4, N-cyclopentyl-3-(1,2,3,4-tetrahydro-2,8-dimethylpyrido[4,3-b]indol-5-yl)propanamide]
inhibition at 1 µM [1]: 59% | inhibition at 1 µM [2]: 41% | inhibition at 1 µM [3]: 53% | Imidazoline I2 Central (1 μM), percent inhibition of specific binding [4]: 54% | inhibition at 1 µM [5]: 40%

CCOC(=O)CCCn1c2c(c3cc(C)ccc31)CN(C)CC2 [Compound 5, ethyl 4-(1,2,3,4-tetrahydro-2,8-dimethylpyrido[4,3-b]indol-5-yl)butanoate]
inhibition at 1 µM [1]: 95% | inhibition at 1 µM [2]: 77% | inhibition at 1 µM [3]: 91% | Imidazoline I2 Central (1 μM), percent inhibition of specific binding [4]: 53% | inhibition at 1 µM [5]: 77%

CCNC(=O)CCCn1c2c(c3cc(C)ccc31)CN(C)CC2 [Compound 6, N-ethyl-4-(1,2,3,4-tetrahydro-2,8-dimethylpyrido[4,3-b]indol-5-yl)butanamide]
inhibition at 1 µM [1]: 43% | inhibition at 1 µM [2]: 31% | inhibition at 1 µM [3]: 30% | Imidazoline I2 Central (1 μM), percent inhibition of specific binding [4]: 52% | inhibition at 1 µM [5]: 21%

Cc1ccc2c(c1)c1c(n2CCNC(=O)OCC(Cl)(Cl)Cl)CCN(C)C1 [Compound 8, 2,2,2-trichloroethyl 2-(1,2,3,4-tetrahydro-2,8-dimethylpyrido[4,3-b]indol-5-yl)ethylcarbamate]
inhibition at 1 µM [1]: 75% | inhibition at 1 µM [2]: 80% | inhibition at 1 µM [3]: 99% | Imidazoline I2 Central (1 μM), percent inhibition of specific binding [4]: 57% | inhibition at 1 µM [5]: 64%

Cc1ccc2c(c1)c1c(n2CCNC(=O)C2CCCNC2)CCN(C)C1 (stereo not drawn) [Compound 9, N-(2-(1,2,3,4-tetrahydro-2,8-dimethylpyrido[4,3-b]indol-5-yl)ethyl)piperidine-3-carboxamide]
inhibition at 1 µM [1]: -8% | inhibition at 1 µM [2]: 21% | inhibition at 1 µM [3]: 15% | Imidazoline I2 Central (1 μM), percent inhibition of specific binding [4]: 9% | inhibition at 1 µM [5]: -5%

Cc1ccc2c(c1)c1c(n2C2CCCCC2O)CCN(C)C1 (stereo not drawn) [Compound 73, 2-(1,2,3,4-tetrahydro-2,8-dimethylpyrido[4,3-b]indol-5-yl)cyclohexanol]
inhibition at 1 µM [1]: 5% | inhibition at 1 µM [3]: 50%
